According to publication PMC11413853, “Discovery of VU6007496: Challenges in the Development of an M1 Positive Allosteric Modulator Backup Candidate” (ACS Chemical Neuroscience, 2024):
Entries after “also recorded” stand apart in the source; their conditions may differ.

What was measured:
[1] = tested on: Sodium Channel, Site 2; assay: Eurofins radioligand binding; design: species or system Rat; details: specific binding
[2] = IV/PO pharmacokinetics, NHP; format: in vivo; details: NHP (cyno); for clearance / Vd / half-life: cynomolgus monkey, plasma, 1 mg/kg; for clearance: read-out: CLp; for Vd: read-out: Vss; for half-life: read-out: elimination t1/2 (converted)
Description: We next conducted multispecies IV/PO PK in parallel as a potential discerning data set.

[3] = tested on: Melatonin MT1; assay: Eurofins radioligand binding; design: species or system Human; details: specific binding
[4] = IV/PO pharmacokinetics, rat; format: in vivo; details: rat (SD), dose iv/po 1/10 mg/kg; for clearance / Vd / half-life: Sprague-Dawley, plasma, 1 mg/kg; for clearance: read-out: CLp; for Vd: read-out: Vss; for half-life: read-out: elimination t1/2 (converted)
Procedure: We next conducted multispecies IV/PO PK in parallel as a potential discerning data set. […] With a strong desire to employ dog as the nonrodent safety species, the challenge to address the low %F in dog was enough to triage PAM 12 and focus on the advancement of 11 (Table 3). […]
Pharmacokinetic profiles in rats following oral single escalating doses Single escalating oral dosing in Sprague-Dawley rats was performed at Frontage Laboratories according to their non-GLP Standard Operating Procedure and IACUC protocols. In short, compounds were formulated in 10% Tween 80 in water and dosed at 10 mg/kg. At different times, arterial blood was collected from a femoral artery catheter, and compound concentration was determined in plasma by LC-MS/MS following their non-GLP protocol. PK parameters were determined using Phoenix WinNonlin software (version 6.3). […]

[5] = tested on: Calcium Channel N-Type; assay: Eurofins radioligand binding; design: species or system Rat; details: specific binding
[6] = Plasma protein binding, dog; format: in vitro ADME; details: pH 7.4, read-out: fu,plasma dog
Procedure: (§1) Plasma protein binding and Brain homogenate binding: Determination of fraction unbound (f u) in plasma was conducted in vitro via equilibrium dialysis using HTDialysis (HTD) membrane plates. The top half of the plate was filled with 100 uL of Dubelco’s Phosphate Buffered Saline, pH 7.4 (DPBS). Compounds were diluted into plasma from each species (5 µM final concentration), which was aliquoted in triplicate to the ‘bottom half’ of the prepared HTD plate wells. The HTD plate was sealed and incubated for 6 hours at 37 °C. Following incubation, each well (both top and bottom halves) were transferred (20 µL) to the corresponding wells of a 96-shallow-well (V-bottom) plate. […]
(§2) The unbound fraction (f u) was calculated following the equation below, and mean values for each species were calculated from 3 replicates.
(§3) A similar approach was used to determine the degree of brain homogenate binding, which employed the same methodology and procedure with the following modifications: 1) a final compound concentration of 1 μM was used, 2) naïve rat brains were homogenized in DPBS (1:3 composition of brain: DPBS, w/w) using a Mini-Bead Beater™ machine in order to obtain brain homogenate, which was then treated in the same manner as the plasma samples in the previously described plasma protein binding assay. Fraction unbound for both plasma and brain samples was determined using Equation 4. […]

[7] = tested on: layer V medial prefrontal cortex (mPFC); assay: Field electrophysiology, layer V medial prefrontal cortex slices; design: species or system mouse; details: 3 μM bath application 20 min; recorded layer V, stimulation layer II/III
Procedure: PAMs 11 and 12 were next evaluated in our rat IV plasma: brain level cassette paradigm (0.25 mg/kg compound, 1 mg/kg total dose, 10.1% EtOH:40.4% PEG400:49.5% DMSO) sampled at a set 15 min time point to assess CNS penetration. […] As mice are the most sensitive species to cholinergic mechanisms,[11],[13],[23],[24] we placed a high-throughput phenotypic seizure liability assay into the work-flow in which potent ago-PAMs, such as 2–5,[8]−[15] display robust Racine scale 4/5 behavioral convulsions that develop within minutes of dosing and last for the 3 h duration of the study. […] In parallel, we performed electrophysiology studies in mouse native tissue layer V medial prefrontal cortex (mPFC). […]
Rats were habituated for 10 min for 2 consecutive days in an empty novel object recognition (NOR) arena consisting of dark-colored plexiglass box (40 × 64 × 33 cm3). […] The rats were then returned to the arena in which one of the previously exposed (familiar) objects was replaced by a novel object and were video recorded for 5 min while they explored the two objects. Time spent exploring each object was scored by an observer blinded to the experimental conditions and the recognition index was calculated as [(time spent exploring novel object) – (time spent exploring familiar object)]/total time exploring objects. […]

[8] = Plasma protein binding, cyno; format: in vitro ADME; details: cynomolgus monkey, pH 7.4, read-out: fu,plasma cyno
Procedure: as §1, §2, §3

[9] = tested on: Dopamine D3; assay: Eurofins radioligand binding; design: species or system Human; details: specific binding

Compound | % Inhibition at 10 µM [1] [%] | F (%) po ([2]; dose iv/po 1/5 mg/kg) [%] | clearance ([2]; dose iv/po 1/5 mg/kg) [mL/min/kg] | Vd ([2]; dose iv/po 1/5 mg/kg) [L/kg] | half-life ([2]; dose iv/po 1/5 mg/kg) [h] | % Inhibition at 10 µM [3] [%] | clearance [4] [mL/min/kg] | Vd [4] [L/kg] | half-life [4] [h] | F (%) po [4] [%] | % Inhibition at 10 µM [5] [%] | fraction unbound at 6 h, 5 µM [6] | change in fEPSP slope (long-term depression) [7] | fraction unbound at 6 h, 5 µM [8] | % Inhibition at 10 µM [9] [%] | F (%) po ([2]; dose iv/po 1/3 mg/kg) [%] | clearance ([2]; dose iv/po 1/3 mg/kg) [mL/min/kg] | Vd ([2]; dose iv/po 1/3 mg/kg) [L/kg] | half-life ([2]; dose iv/po 1/3 mg/kg) [h]
Cn1ccc(-c2ccc(Cc3cc(C(=O)NC4CCOCC4)nc4ccn(C)c34)cc2)n1 [compound 11] | 19 | 59 | 5.9 | 0.39 | 1 | 7 | 26 | 3.2 | 6.1 | 66 | 8 | 0.06 | did not induce significant changes; also recorded: no significant change in fEPSP slope | 0.026 | 8 |  |  |  | 
Cn1ccc(-c2ccc(Cc3cc(C(=O)NC4CCOCC4)nc4ccsc34)cc2)n1 [compound 12] |  |  |  |  |  | 70 | 33 | 8.2 | 5.3 | 100 |  | 0.018 |  | 0.009 |  | 79 | 2.3 | 0.7 | 4.5
